Source: patent publication US20030086947A1, “Vaccine against papillomatous digital dermatitis (PDD)” (TOWNSEND AND TOWNSEND AND CREW, priority 1997, published 2003)

Key:
[1] = system: lesions of papillomatous digital dermatitis (PDD); assay: Effect of various treatments on lesions of papillomatous digital dermatitis in Holstein cows; assay type: in vivo; settings: for No. of cows assessed: Responded / No. of lesions assessed: Responded: complete therapeutic response, assessed at post-treatment days 7, 14 and 21, herds 5 to 7; for Mean therapeutic response time: determined by desiccation and keratinization of surfaces and absence of pain
Experimental: (§1) The effect of various treatments was assessed on a total of 72 lesions of PDD in 35 cows in […] (herds 4 and 5-7). Treatments consisted of procaine penicillin G (G. C. Hanford Manufacturing Co., Syracuse, N.Y.), 18,000 units/kg IM BID for 3 days (7 cows); ceftiofur sodium (Naxcel®, The Upjohn Co., Kalamazoo, Mich.), 2 mg/kg daily for 3 days (14 cows); oxytetracycline (Terramycin—343®Pfizer Animal Health, N.Y.), single topical application of approximately 5 g of soluble powder bandaged directly onto a clean lesion for 7 days (3 cows); formadelhyde (Fisher Scientific, Pittsburg, Pa.), 39% v/v, single topical application (5 cows); hydrochloric acid (Fisher Scientific, Pittsburg, Pa.), 36% v/v, single topical application (4 cows); surgical excision (4 cows); and chlorodifluoromethane, dimethylether (Brand Spray, Stockman Products Ltd., Castledown, Isle of Man, UK), 2 minutes of topical cryogenic spray until lesion and margin were frozen solid and white (1 cow). Two cows which received no, treatment served as untreated controls. Therapeutic response was assessed at post treatment days: 7 (4 cows), 7 and 14 (23 cows) and 7, 14 and 21 (7 cows). Therapeutic response was considered complete if there was entire transformation of moist, red, raw, prone-to-bleed, painful surfaces to dry, dark brown, firm, rubbery, keratinacious, non-painful surfaces adherent to underlying pink healthy-appearing skin. […] Another 6 lesions of PDD in 4 cows in herd 4 were reexamined 5 weeks after total surgical excision.

[2] = system: lesions of papillomatous digital dermatitis (PDD); assay: Prevalence of recurrent and new PDD lesions at follow-up examination of treated cows; assay type: in vivo, Holstein cows; settings: for Recurrence and new-lesion development (in words): 7-12 weeks after complete response; for New: Cows n / New: Lesions n: lesion at a previously non-affected site; for New: Cows n / New: Lesions n / Recurrent: Cows n / Recurrent: Lesions n: cows that completely responded 7-12 weeks before follow-up; for Recurrent: Cows n / Recurrent: Lesions n: recurrence at a previously responsive affected site
Experimental: as §1

Molecule	No. of cows assessed: Responded [1]	No. of lesions assessed: Responded [1]	Mean therapeutic response time [1]	Incomplete responses, number of cows ([1]; in vivo)	Recurrence and new-lesion development (in words) [2]	New: Cows n [2]	New: Lesions n [2]	Recurrent: Cows n [2]	Recurrent: Lesions n [2]	Therapeutic response of PDD lesions (in words) ([1]; in vivo)
CO/N=C(\C(=O)N[C@@H]1C(=O)N2C(C(=O)O)=C(CSC(=O)c3ccco3)CS[C@H]12)c1csc(N)n1 [Ceftiofur IM, ceftiofur sodium]	13	41	11.1 ± 4.5 days	2 cows	Recurrence and new-lesion-development were observed	2	2	4^|	6	
C=O [Formaldehyde (39%), formadelhyde]	5	8	7 days			0	0	0^	0	
Cl [Hydrochloric acid (35%), hydrochloric acid]	2	3	7 days	2 cows	New lesions occurred	2	3	0^	0	persistence of small painful deep ulcers
CN(C)[C@@H]1C(O)=C(C(N)=O)C(=O)[C@@]2(O)C(O)=C3C(=O)c4c(O)cccc4[C@@](C)(O)[C@H]3[C@H](O)[C@@H]12 [Oxytetracycline, topical, oxytetracycline]	3	4	7 days							
procaine penicillin G [Penicillin G procaine IM]	7	9	8.2 ± 2.5 days		Recurrence and new-lesion-development were observed	2	4	1^|	1	
